The structures appear in SMILES notation.

What all share (assay): DiscoveRx scanMAX kinase profiling
What all share (format): binding

One assay addresses T1, S6K1 (RPS6KB1) (Homo sapiens, UniProt P23443).
T1 construct: purchased DiscoverX (San Diego, Calif.) scanMAX
The conditions noted are these: read-out: Direct inhibitory activity on S6K1 (KINOMEscan). As to the method: (§1) Biochemical assays: Recombinant human EIF2AK3 (PERK) catalytic domain (amino acids 536-1116; Cat # PV5107), GFP-eIF2a (Cat # PV4809) substrate, and Terbium-labelled phospho-eIF2a antibody (Cat # PR8956B) were purchased from Invitrogen (Carlsbad, Calif.). HIS-SUMO-GCN2 catalytic domain (amino acids 584-1019) was expressed and purified from E. coli. TR-FRET kinase assays were performed in the absence or presence of inhibitors in a reaction buffer consisting of 50 mM HEPES, pH 7.5, 10 mMMgCl2, 1.0 mM EGTA, and 0.01% Brij-35, and 100-200 nM GFP-eIF2a substrate. […] Following the addition of test compound, the reaction was initiated by addition of enzyme and incubated at room temperature for 45 minutes. The reaction was stopped by addition of EDTA to a final concentration of 10 mM and Terbium-labelled phospho-eIF2α antibody was added at a final concentration of 2 nM and incubated for 90 minutes. The resulting fluorescence was monitored in an EnVison® Multilabel reader (PerkinElmer, Waltham, Mass.). TR-FRET ratios and the resulting IC50 values were determined from the fitted inhibition curves. Biochemical specificity profiling was performed at Cerep (Redmond, Wash.) and DiscoverX (San Diego, Calif.).

A further assay concerns the target T2, PYK2 (PTK2B) (Homo sapiens, UniProt Q14289).
T2 construct: purchased DiscoverX (San Diego, Calif.)
The conditions noted are these: read-out: Direct inhibitory activity on PYK2 (KINOMEscan). On the procedure:
as §1

For the next assay, the target named is T3, ERK8 (MAPK15) (Homo sapiens, UniProt Q8TD08).
T3 construct: purchased DiscoverX (San Diego, Calif.) scanMAX
T3 sequence (Q8TD08 1-544): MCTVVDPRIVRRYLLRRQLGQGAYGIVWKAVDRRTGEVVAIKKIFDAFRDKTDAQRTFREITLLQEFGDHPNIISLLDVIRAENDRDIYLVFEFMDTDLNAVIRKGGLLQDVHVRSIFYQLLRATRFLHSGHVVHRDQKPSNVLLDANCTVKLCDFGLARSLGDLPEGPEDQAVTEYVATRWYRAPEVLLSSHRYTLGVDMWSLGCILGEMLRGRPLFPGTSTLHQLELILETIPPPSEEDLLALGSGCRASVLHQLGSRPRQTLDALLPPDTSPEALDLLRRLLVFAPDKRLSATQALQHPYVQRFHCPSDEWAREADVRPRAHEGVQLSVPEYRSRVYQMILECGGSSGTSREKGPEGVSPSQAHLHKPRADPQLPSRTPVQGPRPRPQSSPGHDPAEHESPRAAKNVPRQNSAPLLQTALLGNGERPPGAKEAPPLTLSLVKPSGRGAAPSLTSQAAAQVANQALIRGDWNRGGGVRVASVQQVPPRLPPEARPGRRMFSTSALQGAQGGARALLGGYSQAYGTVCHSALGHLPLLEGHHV
The conditions noted are these: read-out: Direct inhibitory activity on ERK8 (KINOMEscan). On the procedure: as §1

A further assay addresses T4, AKT3 (Homo sapiens, UniProt Q9Y243).
T4 construct: purchased DiscoverX (San Diego, Calif.) scanMAX
Particulars: read-out: Direct inhibitory activity on AKT3 (KINOMEscan). As to the method:
as §1

For the next assay, the target named is T5, PIK3CB (Homo sapiens, UniProt P42338).
T5 construct: purchased DiscoverX (San Diego, Calif.)
T5 sequence (P42338 whole entry): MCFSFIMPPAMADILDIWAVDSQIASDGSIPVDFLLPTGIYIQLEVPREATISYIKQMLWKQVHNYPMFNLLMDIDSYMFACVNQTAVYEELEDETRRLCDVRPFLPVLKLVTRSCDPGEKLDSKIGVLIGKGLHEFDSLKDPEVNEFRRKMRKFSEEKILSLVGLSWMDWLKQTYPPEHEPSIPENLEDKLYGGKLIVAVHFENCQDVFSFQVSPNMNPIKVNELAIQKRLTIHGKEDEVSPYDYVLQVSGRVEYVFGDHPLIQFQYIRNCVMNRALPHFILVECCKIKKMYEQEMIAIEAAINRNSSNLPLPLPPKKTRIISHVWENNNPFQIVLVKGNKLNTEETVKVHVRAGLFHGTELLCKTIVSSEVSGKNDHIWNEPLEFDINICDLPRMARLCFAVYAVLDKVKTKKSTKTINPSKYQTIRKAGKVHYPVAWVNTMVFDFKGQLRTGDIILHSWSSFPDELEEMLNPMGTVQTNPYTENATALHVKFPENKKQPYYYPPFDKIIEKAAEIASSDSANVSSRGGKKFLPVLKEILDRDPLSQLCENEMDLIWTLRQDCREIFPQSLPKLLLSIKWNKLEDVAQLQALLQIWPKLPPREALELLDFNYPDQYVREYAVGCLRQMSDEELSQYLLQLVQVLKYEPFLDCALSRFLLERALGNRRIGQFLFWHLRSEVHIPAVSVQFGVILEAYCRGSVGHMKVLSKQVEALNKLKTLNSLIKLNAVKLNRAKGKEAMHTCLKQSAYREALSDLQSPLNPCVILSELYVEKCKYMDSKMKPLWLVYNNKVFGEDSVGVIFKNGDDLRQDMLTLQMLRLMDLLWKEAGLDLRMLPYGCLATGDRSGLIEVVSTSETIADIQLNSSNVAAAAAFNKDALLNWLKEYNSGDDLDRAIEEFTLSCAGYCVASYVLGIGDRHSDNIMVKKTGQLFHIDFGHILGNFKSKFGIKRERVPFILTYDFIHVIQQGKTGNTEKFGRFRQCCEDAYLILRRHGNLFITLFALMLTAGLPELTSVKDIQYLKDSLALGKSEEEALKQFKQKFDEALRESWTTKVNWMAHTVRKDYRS
Particulars: read-out: Direct inhibitory activity on PIK3CB (KINOMEscan). As to the method:
as §1

In the next assay the target is T6, ERK5 (MAPK7) (Homo sapiens, UniProt Q13164).
T6 construct: purchased DiscoverX (San Diego, Calif.) scanMAX
T6 sequence (Q13164 whole entry): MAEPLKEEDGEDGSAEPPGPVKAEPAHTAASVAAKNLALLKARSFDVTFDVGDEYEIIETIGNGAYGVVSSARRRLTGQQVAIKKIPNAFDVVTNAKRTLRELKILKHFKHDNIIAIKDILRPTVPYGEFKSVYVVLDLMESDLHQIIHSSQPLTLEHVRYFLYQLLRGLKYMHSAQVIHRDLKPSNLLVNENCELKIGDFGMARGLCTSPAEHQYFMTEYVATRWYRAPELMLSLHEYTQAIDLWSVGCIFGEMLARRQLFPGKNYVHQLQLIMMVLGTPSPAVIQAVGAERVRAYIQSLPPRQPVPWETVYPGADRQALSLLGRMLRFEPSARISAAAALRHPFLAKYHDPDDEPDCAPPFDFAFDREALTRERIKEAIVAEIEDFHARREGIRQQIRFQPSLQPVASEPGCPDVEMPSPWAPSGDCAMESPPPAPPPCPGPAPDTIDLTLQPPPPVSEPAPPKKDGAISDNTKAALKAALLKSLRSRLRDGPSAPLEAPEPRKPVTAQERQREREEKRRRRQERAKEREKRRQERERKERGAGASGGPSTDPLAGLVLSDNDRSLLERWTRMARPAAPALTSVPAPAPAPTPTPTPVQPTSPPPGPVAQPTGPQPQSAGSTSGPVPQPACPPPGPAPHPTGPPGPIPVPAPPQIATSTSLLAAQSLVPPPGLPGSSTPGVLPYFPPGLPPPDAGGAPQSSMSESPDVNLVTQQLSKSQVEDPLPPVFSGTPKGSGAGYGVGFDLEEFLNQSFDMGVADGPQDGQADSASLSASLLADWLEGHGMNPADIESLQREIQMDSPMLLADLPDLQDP
Particulars: read-out: Direct inhibitory activity on ERK5 (KINOMEscan). As to the method: as §1

A further assay addresses T7, PRKR (EIF2AK2) (Homo sapiens, UniProt P19525).
T7 construct: purchased DiscoverX (San Diego, Calif.) scanMAX
Particulars: read-out: Inhibition of PRKR/EIF2AK2 (KINOMEscan). On the procedure:
as §1, with “TR-FRET” for “Biochemical assays: Recombinant human EIF2AK3 (PERK) catalytic domain (amino acids 536-1116; Cat # PV5107), GFP-eIF2a (Cat # PV4809) substrate, and Terbium-labelled phospho-eIF2a antibody (Cat # PR8956B) were purchased from Invitrogen (Carlsbad, Calif.). HIS-SUMO-GCN2 catalytic domain (amino acids 584-1019) was expressed and purified from E. coli. TR-FRET”

Assay [1] has as its target T8, GCN2 (Kin.Dom.2,S808G) (EIF2AK4) (Homo sapiens, UniProt Q9P2K8, S808G).
T8 construct: Kin.Dom.2; purchased DiscoverX (San Diego, Calif.) scanMAX
T8 sequence (Q9P2K8 590-1001 S808G limits assumed): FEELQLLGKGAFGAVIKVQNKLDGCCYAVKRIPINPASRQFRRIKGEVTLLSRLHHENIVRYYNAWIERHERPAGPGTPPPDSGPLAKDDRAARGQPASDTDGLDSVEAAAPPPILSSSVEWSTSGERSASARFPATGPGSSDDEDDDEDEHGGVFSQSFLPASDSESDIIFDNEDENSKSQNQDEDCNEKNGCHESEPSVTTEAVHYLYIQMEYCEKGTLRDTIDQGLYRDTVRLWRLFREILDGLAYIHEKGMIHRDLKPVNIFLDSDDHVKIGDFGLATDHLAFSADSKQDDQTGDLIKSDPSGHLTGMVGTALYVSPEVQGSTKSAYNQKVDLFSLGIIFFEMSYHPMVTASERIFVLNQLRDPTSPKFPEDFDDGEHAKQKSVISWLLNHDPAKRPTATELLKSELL
Particulars: read-out: Inhibition of GCN2/EIF2AK4 (KINOMEscan). On the procedure: as §1, with “TR-FRET” for “Biochemical assays: Recombinant human EIF2AK3 (PERK) catalytic domain (amino acids 536-1116; Cat # PV5107), GFP-eIF2a (Cat # PV4809) substrate, and Terbium-labelled phospho-eIF2a antibody (Cat # PR8956B) were purchased from Invitrogen (Carlsbad, Calif.). HIS-SUMO-GCN2 catalytic domain (amino acids 584-1019) was expressed and purified from E. coli. TR-FRET”

T4 sequence (Q9Y243 whole entry): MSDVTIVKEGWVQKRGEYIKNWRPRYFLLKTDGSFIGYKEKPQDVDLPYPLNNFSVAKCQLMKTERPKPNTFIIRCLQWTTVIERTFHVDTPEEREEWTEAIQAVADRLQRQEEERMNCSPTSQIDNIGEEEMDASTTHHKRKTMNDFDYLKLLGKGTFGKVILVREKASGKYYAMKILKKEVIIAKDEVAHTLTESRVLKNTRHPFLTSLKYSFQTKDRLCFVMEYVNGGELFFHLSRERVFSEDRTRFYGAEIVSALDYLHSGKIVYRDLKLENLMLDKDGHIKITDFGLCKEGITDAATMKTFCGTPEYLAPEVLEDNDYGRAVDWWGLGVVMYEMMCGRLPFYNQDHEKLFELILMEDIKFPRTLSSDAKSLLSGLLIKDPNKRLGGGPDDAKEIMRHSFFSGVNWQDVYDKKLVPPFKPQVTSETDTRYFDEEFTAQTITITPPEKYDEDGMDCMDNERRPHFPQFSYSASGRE
T1 sequence (P23443 whole entry): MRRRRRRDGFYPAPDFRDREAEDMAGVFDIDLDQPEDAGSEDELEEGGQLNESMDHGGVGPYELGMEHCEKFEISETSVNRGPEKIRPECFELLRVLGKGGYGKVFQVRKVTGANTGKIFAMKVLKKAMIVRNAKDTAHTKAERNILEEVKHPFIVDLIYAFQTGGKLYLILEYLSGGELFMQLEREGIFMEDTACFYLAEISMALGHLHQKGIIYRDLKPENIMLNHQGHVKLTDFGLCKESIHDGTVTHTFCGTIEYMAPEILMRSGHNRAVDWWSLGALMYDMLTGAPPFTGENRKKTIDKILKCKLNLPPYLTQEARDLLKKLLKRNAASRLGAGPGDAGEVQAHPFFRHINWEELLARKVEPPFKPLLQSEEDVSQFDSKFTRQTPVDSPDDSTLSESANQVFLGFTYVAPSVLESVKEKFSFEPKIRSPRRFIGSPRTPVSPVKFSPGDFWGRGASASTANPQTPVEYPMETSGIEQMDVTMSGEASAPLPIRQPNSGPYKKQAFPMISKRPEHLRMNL
T2 sequence (Q14289 whole entry): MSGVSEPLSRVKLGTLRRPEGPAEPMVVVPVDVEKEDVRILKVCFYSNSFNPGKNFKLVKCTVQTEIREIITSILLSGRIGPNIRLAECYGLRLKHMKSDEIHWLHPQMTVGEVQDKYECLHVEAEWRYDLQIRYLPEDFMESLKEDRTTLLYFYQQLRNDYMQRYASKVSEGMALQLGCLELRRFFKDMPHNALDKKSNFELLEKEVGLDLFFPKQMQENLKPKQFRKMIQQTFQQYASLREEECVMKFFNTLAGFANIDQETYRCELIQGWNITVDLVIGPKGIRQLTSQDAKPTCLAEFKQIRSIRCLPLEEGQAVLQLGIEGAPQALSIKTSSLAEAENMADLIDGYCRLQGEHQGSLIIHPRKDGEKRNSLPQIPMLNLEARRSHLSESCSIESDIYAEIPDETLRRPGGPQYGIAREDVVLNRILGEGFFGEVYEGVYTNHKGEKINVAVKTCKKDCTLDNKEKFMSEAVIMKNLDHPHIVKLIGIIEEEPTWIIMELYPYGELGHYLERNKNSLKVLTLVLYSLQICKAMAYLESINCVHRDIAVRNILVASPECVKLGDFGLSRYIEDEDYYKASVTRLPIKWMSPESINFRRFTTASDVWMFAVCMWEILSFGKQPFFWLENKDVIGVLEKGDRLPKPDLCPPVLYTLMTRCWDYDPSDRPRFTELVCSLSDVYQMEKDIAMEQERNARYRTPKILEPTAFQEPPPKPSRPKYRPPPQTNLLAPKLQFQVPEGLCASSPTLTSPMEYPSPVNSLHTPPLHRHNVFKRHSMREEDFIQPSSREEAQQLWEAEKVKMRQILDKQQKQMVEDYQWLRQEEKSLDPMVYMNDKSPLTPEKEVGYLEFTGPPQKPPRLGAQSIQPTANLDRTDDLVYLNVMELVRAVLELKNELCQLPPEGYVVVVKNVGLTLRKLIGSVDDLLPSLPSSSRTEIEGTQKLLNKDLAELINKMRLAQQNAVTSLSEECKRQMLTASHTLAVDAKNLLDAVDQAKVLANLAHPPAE
T7 sequence (P19525 whole entry): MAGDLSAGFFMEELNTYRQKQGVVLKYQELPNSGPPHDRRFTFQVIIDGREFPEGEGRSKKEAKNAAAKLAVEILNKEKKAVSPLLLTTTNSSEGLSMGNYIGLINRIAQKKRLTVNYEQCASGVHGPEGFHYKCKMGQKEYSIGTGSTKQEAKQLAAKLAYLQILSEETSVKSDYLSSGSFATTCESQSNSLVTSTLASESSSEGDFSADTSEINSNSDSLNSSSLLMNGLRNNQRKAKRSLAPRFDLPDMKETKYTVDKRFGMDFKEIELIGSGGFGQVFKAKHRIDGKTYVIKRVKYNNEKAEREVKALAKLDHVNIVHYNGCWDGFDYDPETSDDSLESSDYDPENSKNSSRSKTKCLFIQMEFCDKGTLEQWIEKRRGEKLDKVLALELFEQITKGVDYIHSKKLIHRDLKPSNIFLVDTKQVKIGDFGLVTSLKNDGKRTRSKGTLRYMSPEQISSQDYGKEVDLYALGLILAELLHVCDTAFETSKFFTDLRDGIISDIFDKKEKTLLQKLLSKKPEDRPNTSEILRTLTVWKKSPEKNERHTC

`Cc1cccc(CC(=O)N2CCc3c2ccc(-c2cn(C)c4ncnc(N)c24)c3F)n1` [GSK2656157, reference compound]: the inhibition at 0.2 µM on S6K1 (RPS6KB1) is 0%; on PYK2 (PTK2B) it was 0%; on ERK8 (MAPK15), 0%; on AKT3, 24%; at PIK3CB, 0%; on ERK5 (MAPK7), 4%. The inhibition at 0.2 µM is 20% on PRKR (EIF2AK2) and 7% in assay [1]. For the same molecule, the inhibition at 2 µM at S6K1 (RPS6KB1) amounted to 30%; at PYK2 (PTK2B) it was 0%; on ERK8 (MAPK15), 3%; at AKT3, 7%; at PIK3CB, 0%; at ERK5 (MAPK7), 23%. The inhibition at 2 µM was found to be 45% on PRKR (EIF2AK2) and 13% in assay [1]. Besides, the inhibition at 20 µM turned out to be 56% on S6K1 (RPS6KB1); 3% at PYK2 (PTK2B); 6% on ERK8 (MAPK15); 0% at AKT3; 0% at PIK3CB; 12% on ERK5 (MAPK7). For the same molecule, the inhibition at 20 µM on PRKR (EIF2AK2) was 67%; in assay [1] it was 79%.

As to `Cc1cc(NC(=O)[C@H](O)c2cc(F)cc(F)c2)ccc1-c1cnc(N)c(C(=O)NC(C)C)c1` [LY4, 2-amino-5-[4-[[(2R)-2-(3,5-difluorophenyl)-2-hydroxy-acetyl]amino]-2-methyl-phenyl]-N-isopropyl-pyridine-3-carboxamide], the inhibition at 0.2 µM was found to be 31% at S6K1 (RPS6KB1); 0% on PYK2 (PTK2B); 0% at ERK8 (MAPK15); 0% at AKT3; 0% at PIK3CB; 0% at ERK5 (MAPK7). The inhibition at 0.2 µM (on PRKR (EIF2AK2); in assay [1]) was 0% throughout. Also, the inhibition at 2 µM on S6K1 (RPS6KB1), at PYK2 (PTK2B), on ERK8 (MAPK15), at AKT3, at PIK3CB and on ERK5 (MAPK7) was 0% in each case. For the same molecule, the inhibition at 2 µM (on PRKR (EIF2AK2); in assay [1]) was 0% in each case. For the same molecule, the inhibition at 20 µM at S6K1 (RPS6KB1) was determined as 24%; at PYK2 (PTK2B), 6%; on ERK8 (MAPK15), 0%; on AKT3 it was 13%; at PIK3CB, 12%; on ERK5 (MAPK7), 4%. For the same molecule, the inhibition at 20 µM on PRKR (EIF2AK2) was 0%; in assay [1], 28%.

These data come from patent publication US20210121527A1, “METHODS OF TREATING MINIMAL RESIDUAL CANCER” (ICAHN SCHOOL OF MEDICINE AT MOUNT SINAI, priority 2018, published 2021).
